Data published in paper PMC3673936, “Molecular Characterization and Functions of Fatty Acid and Retinoid Binding Protein Gene (Ab-far-1) in Aphelenchoides besseyi” (PLoS ONE, 2013).

Molecular target: T1, rAb-FAR-1 (Aphelenchoides besseyi, UniProt R9QS34)
T1 construct: E. coli BL21(DE3), pET-32a (BamHI/XhoI), N-terminal His-tag fusion, Ni-purified; ORF 181 aa with predicted signal peptide; called full-length, primer FARf-BamHI lacks ATG at its start
Assay: fluorescence titration
Type: binding

T1 sequence (R9QS34 entry or part of it): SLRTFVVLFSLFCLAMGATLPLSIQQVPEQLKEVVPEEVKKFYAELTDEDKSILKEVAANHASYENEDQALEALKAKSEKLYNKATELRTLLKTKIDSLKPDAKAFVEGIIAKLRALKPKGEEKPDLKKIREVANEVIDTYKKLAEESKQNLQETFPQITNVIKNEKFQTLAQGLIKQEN

Compound	Kd [µM]
CN(C)c1cccc2c(S(=O)(=O)NCCCCCCCCCCC(=O)O)cccc12 [DAUDA, 11-((5-dimethylaminonaphthalene-1-sulfonyl)amino) undecannoic acid]	3.4
CC\C=C/C=C/C=C/C=C\CCCCCCCC(=O)O [cis-parinaric acid]	6.69
CC1=C(/C=C/C(C)=C/C=C/C(C)=C/CO)C(C)(C)CCC1 [retinol]	3.41
